The structures appear in SMILES notation.

For this test, the target named is T1, androgen receptor (AR) (Homo sapiens, UniProt P10275, T878A).
T1 sequence (P10275 1-920 T878A): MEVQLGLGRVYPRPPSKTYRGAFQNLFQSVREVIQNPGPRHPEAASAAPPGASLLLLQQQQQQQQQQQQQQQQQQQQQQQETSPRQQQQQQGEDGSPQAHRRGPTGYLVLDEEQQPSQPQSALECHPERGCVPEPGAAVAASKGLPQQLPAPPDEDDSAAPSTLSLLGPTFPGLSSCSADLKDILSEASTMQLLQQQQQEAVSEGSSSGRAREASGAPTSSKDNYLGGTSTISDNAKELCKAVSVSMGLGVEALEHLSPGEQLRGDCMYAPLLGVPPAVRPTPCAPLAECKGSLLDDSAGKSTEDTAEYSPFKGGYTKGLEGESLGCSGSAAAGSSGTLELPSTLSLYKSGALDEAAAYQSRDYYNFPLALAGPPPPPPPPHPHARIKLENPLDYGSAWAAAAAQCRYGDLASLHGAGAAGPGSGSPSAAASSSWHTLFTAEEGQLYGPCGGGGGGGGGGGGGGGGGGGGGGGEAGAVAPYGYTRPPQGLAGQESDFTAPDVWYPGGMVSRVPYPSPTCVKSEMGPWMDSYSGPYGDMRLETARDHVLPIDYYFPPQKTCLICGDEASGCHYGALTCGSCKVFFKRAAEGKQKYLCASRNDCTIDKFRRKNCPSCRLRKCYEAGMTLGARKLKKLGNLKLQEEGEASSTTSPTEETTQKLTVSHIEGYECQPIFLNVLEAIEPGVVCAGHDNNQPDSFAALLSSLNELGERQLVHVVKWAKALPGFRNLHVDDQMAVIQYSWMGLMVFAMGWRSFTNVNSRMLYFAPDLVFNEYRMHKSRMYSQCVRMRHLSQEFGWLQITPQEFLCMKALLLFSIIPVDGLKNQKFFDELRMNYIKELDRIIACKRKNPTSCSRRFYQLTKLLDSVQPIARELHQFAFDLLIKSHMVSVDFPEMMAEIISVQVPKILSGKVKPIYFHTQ
As to the kind of experiment: Androgen-induced PSA (6.1 kb)-luciferase reporter assay in LNCaP cells (R1881 1 nM). The class given is cell-based. The following applies: 24 h, read-out: PSA-Luc IC50 Range. Further details: endogenous in cells; host or cells: LNCaP. The protocol: The PSA (6.1 kb)-luciferase reporter contains functional AREs (androgen response elements) to which AR binds in response to androgen to induce luciferase activity. LNCaP cells were transiently transfected with the PSA (6.1 kb)-luciferase reporter for 24 h, and then pretreated with vehicle (DMSO) or indicated concentration of representative compounds for one hour prior to the addition of synthetic androgen, R1881 (1 nM). After 24 h of incubation with R1881, the cells were harvested, and relative luciferase activities were determined (FIG. 1). To determine the IC50, treatments were normalized to vehicle control activity induced by R1881 (Table 2).
Luciferase Assay: Cells were lysed using Passive Lysis Buffer (Promega) and then collected into V-bottom 96-well tissue culture plates. Lysates were centrifuged at 4° C. for 5 minutes at 3000 rpm. To measure luminescence of LNCaP cell lysates the Firefly Luciferase Assay System (Promega) was employed, according to manufacturer's protocol. Relative luminescence units (RLU) in cell lysates were detected for 10 seconds using Promega GloMax-Multi Detection Luminometer (Promega). Values were normalized to protein content. GraphPad Prism graphing software was used to calculate IC50 values.
Statistical analyses were performed using GraphPad Prism (Version 6.01 for Windows; La Jolla, Calif., USA). Comparisons between treatment and control groups were compared using Two-Way ANOVA with post-hoc Dunnett's and Tukey's tests. Differences were considered statistically significant at P values less than 0.05.
On the technique in general: A reporter such as luciferase makes a cellular process visible.
In general, IC50 refers to the midpoint of a concentration-inhibition curve. In the case of `CS(=O)(=O)Nc1nccc(COc2ccc3c(c2)CC[C@@H]3c2cc(Cl)c(OCCCl)c(C#N)c2)n1` [A35(R)], the IC50 is less than 0.5 µM.

For `CS(=O)(=O)Nc1nccc(COc2ccc3c(c2)CC[C@H]3c2cc(Cl)c(OCCCl)c(C#N)c2)n1` [A35(S)], the IC50 fell in the range of 0.5 to 2 µM.

As for `CC(C)(c1ccc(OCc2ccnc(NS(C)(=O)=O)n2)cc1)c1cc(Cl)c(-c2cccc(Cl)c2)c(C#N)c1` [Compound A1], the IC50 was more than 2 µM.

Consider `CC(C)(c1ccc(OCc2ccnc(NS(C)(=O)=O)n2)cc1)c1cc(Cl)c(-c2ccc(Cl)cc2)c(C#N)c1` [Compound A2, N-(4-((4-(2-(2,4′-dichloro-6-cyano-[1,1′-biphenyl]-4-yl)propan-2-yl)phenoxy)methyl)pyrimidin-2-yl)methanesulfonamide], for which the IC50 was more than 2 µM.

For `CS(=O)(=O)Nc1ncc(COc2ccc3c(ccn3-c3cc(Cl)c(OCCCl)c(C#N)c3)c2)c(N)n1` [Compound A10], the IC50 is more than 2 µM.

With `CS(=O)(=O)Nc1nccc(COc2ccc3c(-c4cc(Cl)c(OCCCl)c(C#N)c4)ncnc3c2)n1` [Compound A18], the IC50 was more than 2 µM.

With `N#Cc1cc(-n2ccc3cc(OCc4coc(S(N)(=O)=O)c4)ccc32)cc(Cl)c1OCCCl` [Compound A20], the IC50 was 0.5 to 2 µM.

For `CS(=O)(=O)Nc1nccc(COc2ccc3c(ccn3-c3cc(C#N)c(OCCCl)c(C(F)(F)F)c3)c2)n1` [Compound A21], the IC50 was 0.5 to 2 µM.

For the compound `CS(=O)(=O)Nc1nccc(COc2ccc3c(ccn3-c3cc(Cl)c(OCC(Cl)(Cl)Cl)c(C#N)c3)c2)n1` [Compound A22], the IC50 is more than 2 µM.

For the compound `CC(C)(c1ccc(OCc2ccnc(NS(C)(=O)=O)n2)cc1)c1cc(C#N)c2ccc(Cl)cc2c1` [Compound A25], the IC50 lay within 0.5 to 2 µM.

Turning to `CS(=O)(=O)Nc1nccc(COc2ccc(-n3ccc4c(Cl)c(OCCCl)c(C#N)cc43)cc2)n1` [Compound A26], the IC50 is more than 2 µM.

Regarding `CS(=O)(=O)Nc1nccc(COc2ccc(-n3ccc4c(C#N)c(OCCCl)c(Cl)cc43)cc2)n1` [Compound A27], the IC50 is 0.5 to 2 µM.

`CS(=O)(=O)Nc1nccc(COc2ccc3c(c2)OCCN3c2cc(Cl)c(OCCCl)c(C#N)c2)n1` [Compound A28, N-(4-(((4-(3-chloro-4-(2-chloroethoxy)-5-cyanophenyl)-3,4-dihydro-2H-benzo[b][1,4]oxazin-7-yl)oxy)methyl)pyrimidin-2-yl)methanesulfonamide]: the IC50 is 0.5 to 2 µM.

Consider `CS(=O)(=O)Nc1ncc(COc2ccc3c(ccn3-c3cc(Cl)c(OCCCl)c(C#N)c3)c2)cn1` [Compound A29, N-(5-(((1-(3-chloro-4-(2-chloroethoxy)-5-cyanophenyl)-1H-indol-5-yl)oxy)methyl)pyrimidin-2-yl)methanesulfonamide], for which the IC50 was in the range of 0.5 to 2 µM.

As to `CS(=O)(=O)Nc1nccc(COc2ccc3c(c2)CCN3c2cc(Cl)c(OCCCl)c(C#N)c2)n1` [Compound A30, N-(4-(((1-(3-chloro-4-(2-chloroethoxy)-5-cyanophenyl)indolin-5-yl)oxy)methyl)pyrimidin-2-yl)methanesulfonamide], the IC50 is more than 2 µM.

For the compound `CS(=O)(=O)Nc1nccc(COc2ccc3c(c2)C(c2cc(Cl)c(OCCCl)c(C#N)c2)CC3)n1` (centres unmarked) [Compound A31, N-(4-(((3-(3-chloro-4-(2-chloroethoxy)-5-cyanophenyl)-2,3-dihydro-1H-inden-5-yl)oxy)methyl)pyrimidin-2-yl)methanesulfonamide], the IC50 is more than 2 µM.

As for `CS(=O)(=O)Nc1nccc(COc2ccc3c(c2)nnn3-c2cc(Cl)c(OCCCl)c(C#N)c2)n1` [Compound A40], the IC50 is more than 2 µM.

With `CC(C)(c1ccc(OCc2ncc(NS(C)(=O)=O)nc2N)cc1)c1cc(Cl)c(OCCCl)c(C#N)c1` [Compound A43], the IC50 was less than 0.5 µM.

As to `CC(C)(c1ccc(OCc2cccc(S(C)(=O)=O)c2)cc1)c1cc(Cl)c(OCCCl)c(C#N)c1` [Compound A47], the half-maximal inhibitory concentration (IC50) lay within 0.5 to 2 µM.

Take `CC(C)(c1ccc(OCc2cncc(NS(C)(=O)=O)c2)cc1)c1cc(Cl)c(OCCCl)c(C#N)c1` [Compound A49]: the IC50 fell in the range of 0.5 to 2 µM.

In the case of `CC(C)(c1ccc(OCc2cccc(S(N)(=O)=O)c2)cc1)c1cc(Cl)c(OCCCl)c(C#N)c1` [Compound A50], the IC50 fell in the range of 0.5 to 2 µM.

As for `CS(=O)(=O)n1cc(COc2ccc3c(ccn3-c3cc(Cl)c(OCCCl)c(C#N)c3)c2)cn1` [Compound A52], the IC50 lay within 0.5 to 2 µM.

For `N#Cc1cc(-n2ccc3cc(OCc4c[nH]nn4)ccc32)cc(Cl)c1OCCCl` [Compound A54], the IC50 was 0.5 to 2 µM.

Turning to `CS(=O)(=O)N1CCC(COc2ccc3c(ccn3-c3cc(Cl)c(OCCCl)c(C#N)c3)c2)CC1` [Compound A55], the IC50 was more than 2 µM.

In the case of `CS(=O)(=O)N1CCCC(COc2ccc3c(ccn3-c3cc(Cl)c(OCCCl)c(C#N)c3)c2)C1` (centres unmarked) [Compound A56], the IC50 fell in the range of 0.5 to 2 µM.

On to `CS(=O)(=O)N[C@H]1CC[C@H](COc2ccc3c(ccn3-c3cc(Cl)c(OCCCl)c(C#N)c3)c2)CC1` [Compound A58], for which the IC50 is more than 2 µM.

On to `CS(=O)(=O)Nc1nccc(COc2ccc3c(cnn3-c3cc(Cl)c(OCCCl)c(C#N)c3)c2)n1` [Compound A60], for which the IC50 is more than 2 µM.

On to `CS(=O)(=O)Nc1nccc(COc2ccc3c(-c4cc(Cl)c(OCCCl)c(C#N)c4)csc3c2)n1` [Compound A61], for which the IC50 is less than 0.5 µM.

`CS(=O)(=O)Nc1nccc(COc2ccc3c(-c4cc(Cl)c(OCCCl)c(C#N)c4)cnn3c2)n1` [Compound A64]: the IC50 is more than 2 µM.

Regarding `CC(C)(c1ccc(OCc2ccnc(NS(C)(=O)=O)n2)cc1)c1cc(Cl)c(NCCCl)c(C#N)c1` [Compound A66], the half-maximal inhibitory concentration (IC50) was in the range of 0.5 to 2 µM.

On to `CC(C)CNc1ncc(C(C)(C)c2ccc(OCc3ccnc(NS(C)(=O)=O)n3)cc2)cc1Cl` [Compound A67], for which the IC50 is more than 2 µM.

Consider `CS(=O)(=O)Nc1nccc(COc2ccc3c(ccn3-c3cc(Cl)c(OCC(F)(F)F)c(C#N)c3)c2)n1` [Compound A70], for which the IC50 lay within 0.5 to 2 µM.

Turning to `CC(C)COc1c(Cl)cc(-n2ccc3cc(OCc4ccnc(NS(C)(=O)=O)n4)ccc32)cc1C#N` [Compound A71], the IC50 is more than 2 µM.

As for `CS(=O)(=O)CCOc1c(Cl)cc(-n2ccc3cc(OCc4ccnc(NS(C)(=O)=O)n4)ccc32)cc1C#N` [Compound A72], the IC50 was more than 2 µM.

In the case of `CS(=O)(=O)Nc1nccc(COc2ccc3c(ccn3-c3cc(Cl)c(OCC4COC4)c(C#N)c3)c2)n1` [Compound A73], the IC50 is more than 2 µM.

For `COCc1c(F)cc(-n2ccc3cc(OCc4ccnc(NS(C)(=O)=O)n4)ccc32)cc1Cl` [Compound A74], the IC50 fell in the range of 0.5 to 2 µM.

For `CS(=O)(=O)Nc1nccc(COc2ccc(-n3ccc4c(C#N)c(OCCCl)c(C#N)cc43)cc2)n1` [Compound A75], the IC50 is more than 2 µM.

Take `CC(=O)Nc1cnc(COc2ccc(C(C)(C)c3cc(Cl)c(OCCCl)c(C#N)c3)cc2)c(NS(C)(=O)=O)n1` [Compound A76]: the IC50 is less than 0.5 µM.

Turning to `Cn1nc(-c2cc(Cl)c(OCCCl)c(C#N)c2)c2ccc(OCc3ccnc(NS(C)(=O)=O)n3)cc21` [Compound A77], the IC50 was more than 2 µM.

For `CS(=O)(=O)Nc1cc(NCc2ccc3c(ccn3-c3cc(Cl)c(OCCCl)c(C#N)c3)c2)ccn1` [Compound A78], the IC50 was more than 2 µM.

Take `CS(=O)(=O)Nc1ccn(CCc2ccc3c(ccn3-c3cc(Cl)c(OCCCl)c(C#N)c3)c2)c(=O)c1` [Compound A81]: the IC50 is more than 2 µM.

Regarding `CS(=O)(=O)Nc1cnn(CCc2ccc3c(ccn3-c3cc(Cl)c(OCCCl)c(C#N)c3)c2)c1` [Compound A84], the IC50 is more than 2 µM.

For `CS(=O)(=O)Nc1nccc(COc2ccc3c(c2)COC3c2cc(Cl)c(OCCCl)c(C#N)c2)n1` (centres unmarked) [Compound A85], the IC50 is more than 2 µM.

For `CC(CO)(c1ccc(OCc2ccnc(NS(C)(=O)=O)n2)cc1)c1cc(Cl)c(OCCCl)c(C#N)c1` (centres unmarked) [Compound A89], the IC50 is more than 2 µM.

Values taken from US20220380378A1 (ESSA Pharma, Inc., priority 2021, published 2022).
